Test results: paper PMC4750701, “Role of Mitochondrial RNA Polymerase in the Toxicity of Nucleotide Inhibitors of Hepatitis C Virus” (Antimicrobial Agents and Chemotherapy, 2016)
Like-named read-outs stand apart in the source and are kept apart here.

Experiments:
[1] = test system: human myeloid progenitors (bone marrow cells); assay: Bone marrow myeloid progenitor colony assay, 14 days; type: cell-based; conditions: read-out: Mean CC50 ± SD in Bone marrow cells Myeloid
[2] = test system: human erythroid progenitors (bone marrow cells); assay: Bone marrow erythroid progenitor colony assay, 14 days; type: cell-based; conditions: read-out: Mean CC50 ± SD in Bone marrow cells Erythroid
[3] = test system: Primary human hepatocytes; assay: Cytotoxicity in primary human hepatocytes, 5 days; conditions: read-out: Mean CC50 ± SD in Hepatic cells (primary); human primary hepatocytes, 5 days
Description: (§2) Primary human hepatocytes were from Bioreclamation IVT (Westbury, NY) or Life Technologies (Carlsbad, CA).
(§3) All cells were cultured at 37°C in a 5% CO2 incubator with 90% humidity unless noted otherwise. […] All cells were treated with the various compounds for 5 days, except for human erythroid and myeloid progenitors, which were treated for 14 days. After the incubation period, cell viability was measured by the addition of CellTiter Glo viability reagents (Promega, Madison, WI). The luminescence signal was quantified on an Envision luminescence plate reader (PerkinElmer, Waltham, MA) after incubation of the reagents and cells for 10 min at room temperature. […] CC50 values were calculated as the average of the results of three or four independent experiments.

[4] = test system: Quiescent PBMCs; assay: Cytotoxicity in quiescent PBMCs, 5 days; conditions: read-out: Mean CC50 ± SD in PBMCs Quiescent; 5 days
Description: (§4) Human peripheral blood mononuclear cells (PBMCs) were isolated from human buffy coats obtained from healthy volunteers (Stanford Blood Bank, Palo Alto, CA) using standard Ficoll separation and stimulated as described elsewhere ([13]) and were tested at both quiescent and stimulated stages. Quiescent PBMCs were stimulated with 10 units per ml of recombinant human interleukin 2 (hIL-2) and 1 μg per ml phytohemagglutinin P (PHA-P) for 48 h prior to drug treatment.
as §3
(§5) Human peripheral blood mononuclear cells (PBMCs) were isolated from human buffy coats
(§6) obtained from normal healthy volunteers (Stanford Medical School Blood Center, Palo Alto,
(§7) CA). Total PBMCs were isolated from buffy coats using standard Ficoll separation and sterile
(§8) cellular isolation techniques performed in a bio-safety cabinet (1). Except where noted, the
(§9) procedure was carried out at room temperature. The final PBMCs pellet was resuspended in
(§10) Logan, UT), penicillin 100 units/mL and streptomycin 100 µg/mL (Gibco). For quiescent
(§11) PBMCs cultures, total cells were seeded in 96-well plates at a density of 1 x 10^6 cells per well, followed by immediate drug treatment. Stimulated PBMCs cultures were set up by seeding the freshly isolated PBMCs in T-175cm2 tissue culture flasks in 100 mL of RPMI containing the same components as the ones used for the quiescent PBMCs but with the addition of 10 units per mL of recombinant human interleukin-2 (hIL-2, Roche, Indianapolis, IN), and 1 µg per mL phytohemagglutinin-P (PHA-P, Sigma-Aldrich, St. Louis, MO) at density of 2  10^6 cells per mL for 48 hours at 37C in a 5% CO2 incubator with 90% humidity, prior to drug treatment.

[5] = test system: Stimulated PBMCs; assay: Cytotoxicity in stimulated PBMCs, 5 days; conditions: read-out: Mean CC50 ± SD in PBMCs Stimulated; 5 days
Description: as §4, §3, §5, §6, §7, §8, §9, §10, §11

[6] = test system: mitochondrial DNA in PC-3 cells and HepG2 cells; assay: Mitochondrial DNA depletion, PC-3 versus HepG2 cells; type: cell-based, human; conditions: 10-day treatment
From the text: Supplementary Fig. S1: PC-3 cells are more sensitive to ddC-induced mitochondria toxicity than HepG2 cells. (A) Levels of mitochondrial DNA in PC-3 cells (shown in […] and dashed line) and HepG2 cells (shown in • and solid line) after 10-day treatment; Levels of mitochondrial protein synthesis in PC-3 cells (B) and HepG2 cells (C) represented by COX-1 protein and nuclear protein synthesis represented by SDH-A protein after 5-day treatment. The levels of COX-1 (•), SDH-A ([…]), and ATP (<) are curve fitted to solid, dash, and dotted lines, […]

[7] = test system: mitochondrial DNA-encoded cytochrome c oxidase (COX-1); assay: Mitochondrial protein synthesis assay (COX-1, MitoBiogenesis in-cell ELISA) in PC-3 cells; type: cell-based, human
Description: (§1) PC-3 cells were treated with the compounds for 5 days and analyzed with the MitoTox MitoBiogenesis in-cell enzyme-linked immunosorbent assay (ELISA) kit (MitoSciences/Abcam, Eugene, Oregon) as described previously ([13]). The assay uses quantitative immunocytochemistry to measure the protein levels of nuclear DNA-encoded succinate dehydrogenase (SDH-A; complex II [succinate dehydrogenase]) and mitochondrial DNA-encoded cytochrome c oxidase (COX-1; complex IV [cytochrome c oxidase]) in cultured cells.

[8] = test system: HepG2 (galactose); assay: Cytotoxicity in HepG2 (galactose) cells, 5-day treatment; conditions: read-out: Mean CC50 ± SD in Hepatic cells HepG2 (galactose); 5-day treatment
Description: as §3
Cell Culture and Cytotoxicity Studies
(§12) The Huh-7 cells were maintained in growth medium containing Dulbecco's Modified Eagle
(§13) Medium (DMEM, Cellgro) supplemented with 1% Nonessential Amino Acids (NEAA, Cellgro,
(§14) Manassas, VA), 10% fetal bovine serum (FBS, HyClone, Logan, UT) and 1% Penicillin-
(§15) streptomycin-glutamate (PSG, Invitrogen, Carlsbad, CA). The cells were passaged twice weekly
(§16) and maintained at 90% confluence densities.
(§17) The HepG2 cells were maintained in Eagle’s Minimum Essential Medium (EMEM) from ATCC
(§18) (Manassas, VA) supplemented with 10% FBS, 100 units/mL penicillin and 100 µg/mL
(§19) streptomycin (P/S) (Gibco). The cells were passaged twice weekly and maintained at 90%
(§20) The PC-3 cells were maintained in Kaighn’s F12 medium (Gibco, Carlsbad, CA) supplemented
(§21) with 10% FBS (HyClone, Logan, UT), 100 units/mL penicillin and 100 µg/mL streptomycin
(§22) (P/S) (Gibco). The cells were passaged twice weekly and maintained at 90% confluence. Cells
(§23) between passages 4 and 15 were used in the assays.
(§24) The fibroblast cell line MRC-5 cell line derived from normal lung tissue, was purchased from
(§25) ATCC (Manassas, VA) and cultured in Minimum Essential Medium (MEM) (Cellgro, Manassas,
(§26) VA) supplemented with 10% FBS (HyClone, Logan, UT) and 1% PSG (Invitrogen). The cells
(§27) were passaged twice weekly and maintained at 90% confluence densities.

[9] = test system: Fibroblasts (MRC5); assay: Cytotoxicity in MRC5 fibroblasts, 5-day treatment; conditions: read-out: Mean CC50 ± SD in Fibroblasts (MRC5); 5-day treatment
Description: as §3
Cell Culture and Cytotoxicity Studies
as §12, §13, §14, §15, §16, §17, §18, §19, §20, §21, §22, §23, §24, §25, §26, §27

[10] = test system: Prostate cells (PC-3); assay: Cytotoxicity / ATP level in PC-3 cells, 5-day treatment
Description: as §3
Cell Culture and Cytotoxicity Studies
as §12, §13, §14, §15, §16, §17, §18, §19, §20, §21, §22, §23, §24, §25, §26, §27

[11] = test system: nuclear DNA-encoded succinate dehydrogenase (SDH-A); assay: Nuclear protein synthesis (SDH-A, MitoBiogenesis in-cell ELISA) in PC-3 cells; type: cell-based, human; conditions: 5 days, read-out: Mean CC50 ± SD causing General cellular toxicity: Protein synthesis
Description: as §1

[12] = test system: Huh7; assay: Cytotoxicity in Huh7 cells, 5-day treatment (CellTiter Glo); conditions: read-out: Mean CC50 ± SD in Hepatic cells Huh7; 5-day treatment
Description: as §3
Cell Culture and Cytotoxicity Studies
as §12, §13, §14, §15, §16, §17, §18, §19, §20, §21, §22, §23, §24, §25, §26, §27

[13] = test system: T-cells (MT-4); assay: Cytotoxicity in MT-4 T-cells, 5-day treatment; conditions: read-out: Mean CC50 ± SD in T-cells (MT-4); 5-day treatment
Description: as §2, §3

[14] = test system: mitochondrial spare respiratory capacity in PC-3 cells; assay: Oxygen consumption rate / spare respiratory capacity in PC-3 cells; conditions: PC-3 cells
Description: Mitochondrial respiration was monitored by measuring the rate of oxygen consumption (OCR) of PC-3 cells after 3-day treatments with the compounds, using a Seahorse extracellular flux analyzer (XF^e-96) based on published protocols ([22][–][24]). The optimal cell seeding was determined by measuring the basal OCR of PC-3 cells that were seeded at different densities of 2.5 × 10^3, 5 × 10^3, 7.5 × 10^3, and 10 × 10^3 cells/well in XF 96-well plates (Seahorse Bioscience, North Billerica, MA) and incubated with 0.5% dimethyl sulfoxide (DMSO) for 3 days. […] Each reagent in the Mito Stress test kit (Seahorse Biosciences), i.e., ATP synthase inhibitor oligomycin, mitochondrial uncoupler carbonyl cyanide-4-(trifluoromethoxy)phenylhydrazone (FCCP), and a fixed-ratio mixture of the mitochondrial complex I (NADH dehydrogenase) inhibitor rotenone and the complex III (CoQH2-cytochrome c reductase) inhibitor antimycin A, was titrated. The lowest concentration that reached the maximal effect was chosen for each reagent. The OCR signals were normalized by cell numbers using DNA content determined by Hoechst's stain as described below.
PC-3 cells were seeded at a density of 5 × 10^3 cells/well in XF 96-well plates and incubated with the compounds for 3 days. On the day of the assay, the cell medium was replaced with XF assay medium (pH 7.4) containing 10 mM glucose and 1 mM freshly prepared pyruvate. Mitochondrial respiration was monitored by measuring OCR on a Seahorse extracellular flux analyzer (XF^e-96). All concentrations listed are the final concentration after mixing unless noted otherwise. […] Spare respiratory capacity was obtained by subtracting the rate of basal respiration from the rate of maximal respiration.
The cells were lysed by freezing at −80°C for >2 h. […] In parallel, another set of cells was treated with the compounds for 3 days and the ATP levels were measured using CellTiter Glo viability reagents (Promega, Madison, WI).

Row | Structure (SMILES) | CC50 [1] [µM] | CC50 [2] [µM] | CC50 [3] [µM] | CC50 [4] [µM] | CC50 [5] [µM] | fold greater sensitivity of PC-3 cells than HepG2 cells to mitochondrial DNA depletion [6] [fold] | fold greater sensitivity of PC-3 cells than HepG2 cells to reductions in COX-1 protein expression ([7]; 5-day treatment) [fold] | selectivity of effect on COX-1 versus SDH-A and ATP levels ([7]; PC-3 cells, 5-day treatments) | CC50 ([7]; PC-3 cells, COX-1, 5 days, read-out: Mean CC50 ± SD causing Mitochondrial toxicity: Protein synthesis) [µM] | CC50 [8] [µM] | CC50 [9] [µM] | CC50 ([10]; read-out: Mean CC50 ± SD causing General cellular toxicity: ATP level, PC-3 cells, 5 days) [µM] | CC50 ([10]; read-out: Mean CC50 ± SD in Prostate cells (PC-3), 5-day treatment) [µM] | CC50 [11] [µM] | CC50 [12] [µM] | CC50 [13] [µM] | selectivity of effect on spare respiratory capacity versus DNA and ATP levels ([14]; 3-day treatments) | CC50 ([14]; read-out: Mean CC50 ± SD causing Mitochondrial toxicity: Respiration, spare respiratory capacity, 3 days) [µM]
1 | O=c1[nH]cc(F)c(=O)[nH]1 [5-FU, 5-flurouracil] | 3.4 ± 0.8 | 3.7 ± 0.5 | > 100 | > 100 | > 100 |  |  |  |  |  |  |  |  |  |  |  |  | 
2 | Nc1ccn([C@H]2CC[C@@H](CO)O2)c(=O)n1 [ddC, dideoxycytosine] | 9.7 ± 2 | 1.9 ± 0.3 | > 100 | > 100 | > 100 | > 30 | > 500 | specifically inhibited COX-1 synthesis | 0.19 ± 0.07 | > 89 | > 89 | 0.8 ± 0.21 | 0.8 ± 0.21 | > 1 | > 89 | > 89 | specifically inhibited mitochondrial spare respiratory capacity | 0.21 ± 0.03
